# Where a name gives a salt, the structure may show the parent alone.
# How the values were obtained:
# [1] = Solid-state physical stability: PXRD after the DVS run / exposure to high RH; format: physicochemical; details: for physical stability / structural change on water sorption (in words): DVS 0-90% RH, PXRD after the run
# Method: (§1) The hygroscopicity of the products of Reference Example 1 and Example 3 were tested using Dynamic Vapor Sorption (DVS). Surface Measurement Systems Ltd. Dynamic Vapour Sorption Advantage Equipment was used employing a 10% RH change at 25° C. starting at 40% RH and looping from 0% RH to 90% RH and back to 0% RH twice. […] Two full cycles from 0% RH to 90% RH were carried out. The percent mass increase with respect to the sample mass of the first exposure to 0% RH (dry weight) was calculated and is presented in Table 7. […] Also, a decrease in mass is noted at 80% RH consistent with a solid-state change, occurs at these conditions.
# [2] = Hygroscopicity by Dynamic Vapor Sorption (DVS); format: physicochemical; details: 25° C.
# Method: as §1
smiles,measurement,setting,value
"Cc1ncnc2c1ccn2[C@@H]1C[C@H](Oc2cc(C(F)F)c(F)c3c2CNCC3)[C@@H](O)[C@H]1O [Phosphate, (1S,2S,3S,5R)-3-((6-(difluoromethyl)-5-fluoro-1,2,3,4-tetrahydroisoquinolin-8-yl)oxy)-5-(4-methyl-7H-pyrrolo[2,3-d]pyrimidin-7-yl)cyclopentane-1,2-diol monophosphate hydrate]",physical stability / structural change on water sorption (in words),"[1]; listed as Example 3 phosphate salt, monophosphate hydrate",no structural changes caused by the water sorption
same,% Mass-Ref Dry mass,"[2]; 10% RH, monophosphate hydrate",3.4%
same,% Mass-Ref Dry mass,"[2]; 20% RH, monophosphate hydrate",3.7%
same,% Mass-Ref Dry mass,"[2]; 30% RH, monophosphate hydrate",3.9%
same,% Mass-Ref Dry mass,"[2]; 40% RH, monophosphate hydrate",4.1%
same,% Mass-Ref Dry mass,"[2]; 50% RH, monophosphate hydrate",4.3%
same,% Mass-Ref Dry mass,[2]; 60% RH,4.5%
same,% Mass-Ref Dry mass,"[2]; 70% RH, listed as Example 3 phosphate salt, monophosphate hydrate",4.57%
same,% Mass-Ref Dry mass,"[2]; 70% RH, monophosphate hydrate",4.6%
same,% Mass-Ref Dry mass,"[2]; 80% RH, monophosphate hydrate",4.7%
same,% Mass-Ref Dry mass,"[2]; 90% RH, monophosphate hydrate",4.8%
"Cc1ncnc2c1ccn2[C@@H]1C[C@H](Oc2cc(C(F)F)c(F)c3c2CNCC3)[C@@H](O)[C@H]1O [di HCl, (1S,2S,3S,5R)-3-((6-(difluoromethyl)-5-fluoro-1,2,3,4-tetrahydroisoquinolin-8-yl)oxy)-5-(4-methyl-7H-pyrrolo[2,3-d]pyrimidin-7-yl)cyclopentane-1,2-diol (di) hydrochloride]",physical stability / structural change on water sorption (in words),"[1]; listed as di-HCL salt, hydrochloride",not physically stable
same,relative humidity at which the amorphous salt crystallizes,"[1]; PXRD after DVS run, 25° C.",≥ 80 % RH
same,% Mass-Ref Dry mass,"[2]; 0% RH, relative to mass at first exposure to 0% RH",0.0%
same,hygroscopicity (in words),[2]; 0-90% RH,very hygroscopic
same,% Mass-Ref Dry mass,"[2]; 10% RH, hydrochloride",2.9%
same,% Mass-Ref Dry mass,"[2]; 20% RH, hydrochloride",4.0%
same,% Mass-Ref Dry mass,"[2]; 30% RH, hydrochloride",4.9%
same,% Mass-Ref Dry mass,"[2]; 40% RH, hydrochloride",6.0%
same,% Mass-Ref Dry mass,"[2]; 50% RH, hydrochloride",7.6%
same,% Mass-Ref Dry mass,"[2]; 60% RH, hydrochloride",10.4%
same,% Mass-Ref Dry mass,"[2]; 70% RH, hydrochloride",14.7%
same,% Mass-Ref Dry mass,"[2]; 70% RH, listed as diHCl salt, hydrochloride",14.7%
same,% Mass-Ref Dry mass,"[2]; 80% RH, hydrochloride",12.0%
same,% Mass-Ref Dry mass,"[2]; 90% RH, hydrochloride",12.0%
